# Experimental data from publication PMC10977726 (PLOS ONE, 2024).
# How the values were obtained:
# human IgG Fc = biological target: T1, human IgG Fc (Homo sapiens, UniProt P01857); assay: Phage competition ELISA for epitope mapping (various synthetic DCPs vs phage displaying one DCP); assay type: binding
# T1 construct: Biotin-SP-ChromPure Human IgG, Fc fragment; purchased Jackson Immunoresearch Labs Inc. 009060008
# [1] = 100% human serum, 0.2 mM DCP, 37°C, LC-MS, UV 220 nm peak area normalized to 0 h, three independent experiments
smiles,measurement,setting,value
CC[C@H](C)[C@@H]1NC(=O)[C@H](CO)NC(=O)[C@H]([C@@H](C)CC)NC(=O)[C@H](CO)NC(=O)[C@H](CO)NC(=O)[C@@H]2CSSC[C@@H]3NC(=O)[C@H](CO)NC(=O)CNC(=O)[C@H]([C@@H](C)O)NC(=O)[C@H](CSSC[C@H](NC(=O)[C@@H](N)CCC(=O)O)C(=O)N[C@@H](CCCCN)C(=O)NCC(=O)N[C@@H](CCCCN)C(=O)NCC(=O)N[C@@H](C)C(=O)N[C@@H](CCCCN)C(=O)N2)NC(=O)[C@H](CSSC[C@@H](C(=O)O)NC(=O)[C@H](CCCCN)NC(=O)CNC(=O)[C@H](CO)NC(=O)[C@H](CCCNC(=N)N)NC3=O)NC(=O)[C@H](Cc2c[nH]cn2)NC(=O)[C@H](C)NC(=O)[C@H](CC(=O)O)NC(=O)[C@H](Cc2c[nH]cn2)NC1=O [Ig-CON-5],inhibition of interaction between biotinylated hIgG Fc and phage displaying Ig-AMP-1,human IgG Fc; Fig 4D,potently inhibited
same,inhibition of interaction between human IgG Fc and phage displaying Ig-CON-5,human IgG Fc; Fig S15,potently inhibited
same,loss of peptides after 24 h,[1],40–50%
